Read-outs that look alike come from different tables or passages of the source. Peptide text beside a SMILES is read from it.
Tested on: splenocytes from TFA-S100 immunized BALB/c mice
Conditions: for activation of T cells (splenocyte proliferation, 3H thymidine incorporation / proliferation index): 0.1, 0.5 or 1 ug/mL epitope, splenocytes two weeks after TFA-S100 immunization; for recognition by DILI-specific T cells and B cells: summary of mouse splenocyte proliferation and human serum ELISA
Experimental: FIG. 4. Splenocyte proliferation assays with candidate CYP2E1 epitopes.
As described above, BALB/c mice were immunized with TFA-S100. Splenocytes from BALB/c mice immunized with S100 in CFA plus PT or CFA and PT alone were used as controls. Splenocyte isolation was performed using basic immunological techniques. Briefly, spleens were harvested two weeks after immunization. Spleens were mashed between two frosted glass slides, and tissue debris was removed by filtering the sample through a 70 μm cell strainer. The remaining cells were washed with sterile phosphate buffered saline/2% fetal calf serum (PBS/2% FCS) and centrifuged at 1500 rpm for 10 minutes using a refrigerated desktop centrifuge. Red cells were lysed using ACK lysing buffer. The remaining cells were washed with RPMI-10% HEPES and filtered through a 70 μm cell strainer. The splenocytes were stored in RPMI complete media with 10% FCS (RPMI-10) at a final concentration of 2.5 million cells per 1 mL of media.
For the proliferation assays, 2.5×10^5 splenocytes (100 μl) were added to each well of a 96 well plate with 0.1 μg/mL, 0.5 μg/mL, or 1 μg/mL of a candidate epitope. As controls, media or concanavalin A (Con A) were also tested in the proliferation assays. Plates were incubated for 3 days at 37° C., 5% CO2, 95% air (humidified). Six to 18 hours prior to the 72 hour time point, the splenocytes were pulsed with 1 μCi/well ^3H thymidine (0.25 mCi/0.25 ml stock). Specifically, a 1:10 dilution (0.1 mCi/ml) of the ^3H thymidine stock solution is made by adding 200 μl of ^3H thymidine stock solution to 1800 μl of sterile RPMI. 10 μl (1 μCi) of diluted ^3H thymidine was pipetted into each well. The cells were incubated for […]. After incubation, cells were placed in −20° C. for up to 45 minutes to stop the incorporation of ^3H thymidine into proliferating cells. The splenocytes were analyzed and ^3H incorporation, an indicator of cellular proliferation, was measured.

| SMILES | activation of T cells (splenocyte proliferation, 3H thymidine incorporation / proliferation index) | recognition by DILI-specific T cells and B cells | recognition by DILI-specific T cells and B cells (listed as Gly^113-Leu^133) |
| --- | --- | --- | --- |
| CC(C)C[C@H](NC(=O)[C@H](CC(C)C)NC(=O)[C@H](CC(C)C)NC(=O)[C@H](Cc1ccccc1)NC(=O)[C@H](C)NC(=O)[C@H](C)NC(=O)[C@H](Cc1c[nH]c2ccccc12)NC(=O)[C@@H](NC(=O)[C@H](CC(C)C)NC(=O)[C@H](CC(C)C)NC(=O)[C@H](C)NC(=O)[C@@H](NC(=O)[C@@H](NC(=O)[C@@H](NC(=O)CNC(=O)[C@H](CC(C)C)NC(=O)[C@H](C)NC(=O)[C@@H](N)CO)C(C)C)[C@@H](C)O)C(C)C)C(C)C)C(=O)O [JHDN1] (H-SALGVTVALLVWAAFLLL-OH) | able to activate T cells |  |  |
| CC[C@H](C)[C@H](NC(=O)CN)C(=O)N[C@H](C(=O)N[C@@H](Cc1ccccc1)C(=O)N[C@@H](CC(N)=O)C(=O)N[C@@H](CC(N)=O)C(=O)NCC(=O)N1CCC[C@H]1C(=O)N[C@H](C(=O)N[C@@H](Cc1c[nH]c2ccccc12)C(=O)N[C@@H](CCCCN)C(=O)N[C@@H](CC(=O)O)C(=O)N[C@H](C(=O)N[C@@H](CCCNC(=N)N)C(=O)N[C@@H](CCCNC(=N)N)C(=O)N[C@@H](Cc1ccccc1)C(=O)N[C@@H](CO)C(=O)N[C@@H](CC(C)C)C(=O)N[C@H](C(=O)N[C@H](C(=O)N[C@@H](CC(C)C)C(=O)O)[C@@H](C)O)[C@@H](C)O)[C@@H](C)CC)[C@@H](C)O)[C@@H](C)CC [JHDN5] (H-GIIFNNGPTWKDIRRFSLTTL-OH) | able to activate T cells | only candidate epitope that is recognized by DILI-specific T cells | recognized by DILI-specific T cells and B cells |
